{
  "source": "paper PMC10314905",
  "about": "“Architecture of a complete Bce-type antimicrobial peptide resistance module” (Nature Communications, 2023)",
  "molecules": {"B1": {"name": "BceA, ATPase (nucleotide binding domain) subunit of the ABC transporter BceAB (natural protein, B. subtilis)", "chain": "VILEANKIRKSYGNKLNKQEVLKGIDIHIEKGEFVSIMGASGSGKTTLLNVLSSIDQVSHGTIHINGNDMTAMKEKQLAEFRKQHLGFIFQDYNLLDTLTVKENILLPLSITKLSKKEANRKFEEVAKELGIYELRDKYPNEISGGQKQRTSAGRAFIHDPSIIFADEPTGALDSKSASDLLNKLSQLNQKRNATIIMVTHDPVAASYCGRVIFIKDGQMYTQLNKGGQDRQTFFQDIMKTQGVLGGVQHEH", "notes": "BceA of Bacillus subtilis; gene PCR amplified from B. subtilis genomic DNA together with the overlapping bceB gene; Two copies of BceA stand in the BceAB-S complex (BceA:B:S 2:1:2); No cleavage of the His tag is told; also called BceA NBDs; BceA subunits; not shown: His6, N-terminal, kept"}, "B2": {"name": "BceS sensor histidine kinase (natural protein, B. subtilis, UniProt O35044 1-334, looked up)", "chain": "MIKAFLIERRSWIAAFLFQQALMLFIAFVDPSISFGNVLYMVYLCILFFIIFLWFRYRKETAFYKSLKTWENNLDVTAINEPETPFEAMVERSIAGQTEHLKQTAARHRLALENEKDELMAWIHEVKTPLTAMHLIIDRMEEKALKSQLSYEWLRIHLLLDQQLHQKRISFIENDLSVEFIQLQPLIFKEIKDLQSWCIQKGIGFDIQLEAKEVLSDAKWLAFIIRQLLTNAVKYSEASEIEIKSFQKGEQTQLQVKDCGRGIDPKDVPRIFDKGFTSTTDHHDQASTGMGLYLAKKAAAPLLIHIDVESEFGAGTVFTLTFPIRNQFEHVISV", "notes": "BceS of Bacillus subtilis; gene PCR amplified from B. subtilis genomic DNA; Dimer in the BceAB-S complex; also called BceS kinase; BceS dimer"}},
  "key": {"[1]": {"target": "T1, BceAB (isolated transporter) (Bacillus subtilis, UniProt O34697)", "T1 construct": "gene bceA", "T1 sequence (O34697 whole entry, one chain of several)": "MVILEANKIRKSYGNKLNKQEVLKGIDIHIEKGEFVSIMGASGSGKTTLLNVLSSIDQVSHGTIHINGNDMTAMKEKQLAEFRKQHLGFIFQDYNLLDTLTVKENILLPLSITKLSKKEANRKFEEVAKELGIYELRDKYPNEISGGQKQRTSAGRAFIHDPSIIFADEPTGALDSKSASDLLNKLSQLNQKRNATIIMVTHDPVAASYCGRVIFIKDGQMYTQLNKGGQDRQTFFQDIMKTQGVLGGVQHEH", "details": "MgCl2, 37 °C, 30 min, detergent solubilized"}, "BceAB-S complex [2]": {"target": "T2, BceAB-S complex (Bacillus subtilis, UniProt O34697)", "T2 sequence (O34697 whole entry, one chain of several)": "as above", "design": "gene bceA", "details": "MgCl2, 37 °C, 30 min, detergent solubilized"}, "BceAB-S complex [3]": {"target": "T2, BceAB-S complex", "experiment": "cryo-EM structure of the complex", "format": "binding", "design": "gene bceA; full-length; petDUET-1, E. coli C41(DE3); LMNG-solubilized; BceA:B:S 2:1:2; with Bacitracin export permease protein BceB; Sensor protein BceS", "details": "5 mM ATPγS, 5 mM MgCl2, LMNG; bound at Walker A motif and Tyr13 of BceA"}, "[4]": {"target": "the molecule itself", "experiment": "cryo-EM structure; BceAB-S, co-expressed and co-purified complex in LMNG, incubated on ice with 5 mM ATPγS and 5 mM MgCl2 for 30 min before freezing"}, "[5]": {"target": "T3, BceAB ABC transporter (BceA2:BceB1) (B. subtilis, UniProt O34697 2-253; O34741 1-646)", "T3 construct": "BceA of Bacillus subtilis, as m1; BceB of Bacillus subtilis, as m2; The construct for isolated BceAB (without BceS) is not described here; also called BceAB transporter; isolated BceAB; source: E. coli C41(DE3), co-expressed (with or without BceS), purified (LMNG, Co3+-Talon, Superdex 200); not shown: His6, N-terminal, kept; copies: 2 + 1", "T3 sequence 1": "B1 chain", "T3 sequence 2": "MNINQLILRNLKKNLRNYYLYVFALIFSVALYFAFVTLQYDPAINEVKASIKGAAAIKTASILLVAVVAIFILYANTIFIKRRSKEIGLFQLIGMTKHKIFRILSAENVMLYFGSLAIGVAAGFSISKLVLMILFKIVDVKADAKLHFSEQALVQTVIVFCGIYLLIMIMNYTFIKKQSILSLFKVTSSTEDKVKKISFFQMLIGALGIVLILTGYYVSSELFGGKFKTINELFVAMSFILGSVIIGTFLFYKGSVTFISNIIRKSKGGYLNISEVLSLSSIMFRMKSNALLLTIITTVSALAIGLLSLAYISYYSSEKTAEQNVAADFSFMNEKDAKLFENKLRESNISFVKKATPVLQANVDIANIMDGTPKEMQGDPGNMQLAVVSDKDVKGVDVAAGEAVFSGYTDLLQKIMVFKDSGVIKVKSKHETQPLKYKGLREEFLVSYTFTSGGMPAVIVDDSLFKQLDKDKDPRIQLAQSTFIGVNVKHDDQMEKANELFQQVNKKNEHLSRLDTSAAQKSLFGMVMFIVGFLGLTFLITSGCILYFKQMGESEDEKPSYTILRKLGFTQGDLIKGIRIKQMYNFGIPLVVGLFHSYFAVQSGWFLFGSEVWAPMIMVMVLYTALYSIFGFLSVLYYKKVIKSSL", "experiment": "cryo-EM structure; nucleotide-free BceAB-S, co-expressed and co-purified complex in LMNG at ~7 mg/mL; Titan Krios, K3", "details": "both partners purified"}, "[6]": {"target": "the molecule itself", "experiment": "cryo-EM structure; nucleotide-free BceAB-S, co-expressed and co-purified complex in LMNG at ~7 mg/mL; Titan Krios, K3"}},
  "data": [
    {"molecule": "Nc1ncnc2c1ncn2[C@@H]1O[C@H](COP(=O)(O)OP(=O)(O)OP(=O)(O)O)[C@@H](O)[C@H]1O", "note": "[ATP]", "values": [
      {"measurement": "colorimetric phosphate-release ATPase assay", "setting": "[1]", "result": "significantly reduced maximal ATPase activity compared to the isolated BceAB transporter"},
      {"measurement": "colorimetric phosphate-release ATPase assay", "setting": "BceAB-S complex [2]", "result": "The BceAB-S complex displayed significantly reduced maximal ATPase activity"}
    ]},
    {"molecule": "Nc1ncnc2c1ncn2[C@@H]1O[C@H](COP(=O)(O)OP(=O)(O)OP(O)(O)=S)[C@@H](O)[C@H]1O", "note": "[ATPγS]", "values": [
      {"measurement": "cryo-EM structure of the complex", "setting": "BceAB-S complex [3]", "result": "ATPγS engages the Walker-A motif and Tyr13 in the A-loop of BceA"}
    ]},
    {"molecule": "B1", "values": [
      {"measurement": "binding result", "setting": "[4]", "result": "binds"}
    ]},
    {"molecule": "B2", "values": [
      {"measurement": "stoichiometry N", "setting": "[5]", "result": "2 BceS per BceAB (BceA2:BceB1)"},
      {"measurement": "stoichiometry N", "setting": "[6]", "result": 2}
    ]}
  ]
}
